Experimental data published in patent US20060094013A1, “Salt-inducible kinases 2 and use thereof” (priority 2002, published 2006).
Each block holds one molecule with its values, some of them ahead of it.

Experiments:
mouse SIK2 = biological target: T1, mouse SIK2 (Mus musculus, UniProt Q8CFH6); experiment: Protein-phosphorylating activity of purified GST-mSIK2 (auto-phosphorylation and GST-Syntide 2 phosphorylation, 32P, SDS-PAGE); assay type: biochemical
T1 construct: the full-length cDNA in the protein translation region of SIK2 was amplified by the RT-PCR method; made in house; host or cells: COS-7
T1 sequence (Q8CFH6 whole entry): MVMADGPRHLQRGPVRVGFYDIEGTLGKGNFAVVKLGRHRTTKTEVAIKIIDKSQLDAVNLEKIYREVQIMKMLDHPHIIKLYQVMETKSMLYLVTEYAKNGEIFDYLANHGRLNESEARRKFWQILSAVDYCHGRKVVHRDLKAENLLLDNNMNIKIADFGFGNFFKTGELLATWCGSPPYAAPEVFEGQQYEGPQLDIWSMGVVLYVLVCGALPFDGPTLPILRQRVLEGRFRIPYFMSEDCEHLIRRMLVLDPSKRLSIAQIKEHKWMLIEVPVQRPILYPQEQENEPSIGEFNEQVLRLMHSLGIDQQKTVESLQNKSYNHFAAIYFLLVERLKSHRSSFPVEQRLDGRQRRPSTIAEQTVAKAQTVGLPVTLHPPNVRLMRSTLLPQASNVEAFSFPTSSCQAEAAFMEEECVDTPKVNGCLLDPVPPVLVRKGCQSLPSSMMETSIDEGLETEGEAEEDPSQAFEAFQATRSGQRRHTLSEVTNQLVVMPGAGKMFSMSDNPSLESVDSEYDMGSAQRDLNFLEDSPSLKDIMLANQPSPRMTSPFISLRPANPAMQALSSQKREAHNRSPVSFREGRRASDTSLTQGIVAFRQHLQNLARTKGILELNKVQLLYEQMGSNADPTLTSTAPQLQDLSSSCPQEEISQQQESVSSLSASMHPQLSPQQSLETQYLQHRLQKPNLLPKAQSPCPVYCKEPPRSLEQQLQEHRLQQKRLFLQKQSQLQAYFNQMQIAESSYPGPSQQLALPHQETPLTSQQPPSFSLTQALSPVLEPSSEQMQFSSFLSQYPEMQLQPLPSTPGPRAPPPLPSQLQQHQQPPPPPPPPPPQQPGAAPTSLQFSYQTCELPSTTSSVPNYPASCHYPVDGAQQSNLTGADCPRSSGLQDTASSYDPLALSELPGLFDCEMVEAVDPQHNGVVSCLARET
Protocol: The obtained GST-mSIK2 was mixed with 1 μl of GST-Syntide 2 (Lin et al., as describe above) and [^32P]-[…] (37 kBq; manufactured by ICN) in the presence of a 50 mM Tris-HCl buffer solution (pH 8.0) and 10 mM MnCl2 (20 μl in total). The mixture was allowed to react at 30° C. for 1 hour. The reaction was then terminated by adding 10 μl of an SDS-sample buffer and heating at 100° C. for 5 minutes. 10 μl of the reacted sample was separated using 15% SDS-PAGE, and the SDS-PAGE gel was then dried. The intake of ^32P was detected by exposing it to light for 30 minutes, using an X-ray film (MS-film; manufactured by Kodac). […] For comparison purpose, GST-rat SIK1 and GST-rat SIK1 (K56M) were subjected to the same experiment. Consequently, the same results were obtained.
A GST-mSIK2 protein that was allowed to express in COS-7 cells and then purified was mixed with DMSO solutions containing 5% DMSO and 5% each of 1, 10, 100 nM staurosporine (Sigma) ina reaction system in the test tube used in Example 3. Thereafter, phosphorylating activity was detected by the SDS-PAGE method, so as to evaluate the inhibition of enzyme activity of mouse SIK2 by staurosporine. […] The auto-phosphorylating activity and GST-Syntide 2-phosphorylating activity of GST-mSIK2 were approximately 30% inhibited even by the single use of DMSO. […] It was inhibited by 1 nM staurosporine until the residual activity became approximately 20%. By 10 nM and 100 nM staurosporines, it was almost 100% inhibited.

SIK [1] = experiment: Immunostaining of dexamethasone-induced SIK in 3T3-L1 cells with antibodies specific for the phosphorylation state; assay type: cell-based
Protocol: 3T3-L1 cells were inoculated on 96-well plates, and the cells were cultured until they became confluent. The medium placed in such a plate was DMEM/10% FCS. The culture was carried out at 37° C. in 5% CO2. Thereafter, dexamethasone was added to each of the plates, thereby resulting in a concentration of dexamethasone of 1 μM, so that SIK was induced. After 1 hour had passed after the induction, an SIK inhibitor, staurosporine, was added to the plates, thereby resulting in concentrations of 10, 100, and 1,000 nM. Thereafter, the culture was further carried out for 1 hour. […] Subsequently, the cells were added to PBS containing 4% paraformaldehyde, and the mixture was then left at room temperature for 15 minutes, so that the cells were immobilized. Thereafter, the cells were washed with PBS 4 times, and they were then allowed to react with a blocking solution obtained by dissolving 1% skimmed milk in TBST (TBS containing 0.1% Tween 20). Subsequently, 100 μl of antiserum (500 times diluted) containing an antibody binding to SIK1 wherein serine at position 577 is phosphorylated, an antibody binding to SIK1 wherein threonine at position 182 and serine at position 186 are phosphorylated, an anti-SIK antibody, or an antibody binding to SIK1 wherein serine at position 577 is not phosphorylated, was added to the same above blocking solution. The obtained mixture was reacted overnight. After completion of the reaction overnight, an unreacted antibody portion was eliminated by washing with PBS 4 times. A solution obtained by 1,000 times diluting an HRP-labeled anti-rabbit IgG secondary antibody was added to a reaction solution obtained by dissolving 1% skimmed milk in TBS, and the mixture was then reacted at room temperature for 2 hours. Thereafter, the resultant product was washed with PBS 4 times. The antigen-antibody reaction was visualized using Konica Immuno Stain HRP reagent (manufactured by Konica).

[2] = tested on: CRE-suppressing activity of SIK; experiment: CRE activity in cells with PKA and SIK, peptide bound to the GFPC carrier; assay type: cell-based; settings: peptide bound to C-terminus of GFP; PKA and SIK present
Description: GFPC is a C-terminus binding-type green fluorescent protein. GFPC is used as a peptide carrier, wherein a peptide of interest binds to the C-terminus of GFP. […] The grey one is CRE activity obtained when both PKA and SIK exist.

SIK [3] = biological target: T2, SIK (Mus musculus, UniProt Q8CFH6); experiment: Phosphorylating activity of GST-SIK2 on Syntide 2 in the presence of a p300 peptide (method of Lin et al.); assay type: biochemical; settings: GST-SIK2 expressed in COS-7 cells
T2 construct: the full-length cDNA in the protein translation region of SIK2 was amplified by the RT-PCR method; made in house; host or cells: COS-7
T2 sequence (Q8CFH6 whole entry): as above
Protocol: It was studied whether or not a peptide p300 is phosphorylated by SIK when serine at position 89 in p300 is substituted with alanine (S89A). Moreover, it was also studied whether or not the peptide p300 [84-93 (S89A)] can inhibit the phosphorylating activity of SIK. When the activity of SIK2 was measured by the method of Lin et al., a DMSO solution containing 5% DMSO (dimethyl sulfoxide) and staurosporine was added. SIK2 was allowed to express in the form of a GST binding form in COS-7 cells, and it was then purified using GST-Mirospin kit from Amersham Pharmacia.
The left lane and the central lane show the results regarding a synthetic substrate (Syntide 2) phosphorylated by SIK.

Gal4-CREB(-bZIP) = Gal4-CREB(-bZIP) luciferase reporter assay; assay type: cell-based; settings: 50 ng/ml
Protocol: (§1) In addition, CREB was introduced into the N-terminal side of the Gal4 protein of budding yeast (Gal4 DNA binding domain; Gal4DB). Using a plasmid wherein a reporter gene (fire fly luciferase) was introduced downstream of a promoter having a sequence consisting of 5 consecutive Gal4-binding sequences, the ability of DB to transcribe CREB without the medium of CRE was analyzed. In the case of a Gal-CREB (full-length) system, since it has a bZIP domain, the transcription was inhibited by SIK2 and TNFα (refer to FIG. 9B).

CRE = CRE luciferase reporter assay in precursor fat cells 3T3-L1; assay type: cell-based; settings: 50 ng/ml; SIK2 not highly expressed
Protocol: For the purpose of detecting the CRE transcription-suppressing activity of SIK2, using Lipofectoamin 200 reagent (2 μl; manufactured by Invitrogen), 200 ng each of pTarget-SIK2 and pTarget-SIK2 (K49M), together with an expression vector (pTAL-CRE; 200 ng; manufactured by Clontech) in which a luciferase gene is located under the control of CRE, were introduced into precursor fat cells 3T3-L1. Moreover, mSIK2 (S587A) having a destroyed PKA phosphorylated portion, which was predicted to exist in mouse SIK2 domain 3 from the findings regarding rat SIK1, was introduced therein, using oligo DNA represented by SEQ ID NO: 16.
In the thus produced mSIK2 (S587A), serine at position 587 was substituted with alanine with respect to the full-length SIK2. For correction of introduction efficiency, a vector (pRL-SC40; 30 ng; manufactured by Promega) that allows luciferase derived from Renilla to express under an SV40 promoter was co-introduced therein. 16 hours later, the cells were stimulated with forskolin (50 μM) for 6 hours, so as to activate CRE. Thereafter, the cells were recovered, and the expression level of a reporter gene was analyzed using Dual Luciferase Assay kit (manufactured by Promega).
The corrected pTAL-CRE-derived activity was divided by the activity derived from pTAL, so as to obtain a specific activity derived from CRE. […]

Gal-CREB (full-length) = experiment: Gal4-CREB (full-length) luciferase reporter assay; assay type: cell-based; settings: 50 ng/ml
Protocol: as §1

SIK2 gene = experiment: SIK2 mRNA level after incubation with hormones (Northern blot); assay type: cell-based; settings: used singly, 2 hours; insulin 1 μg/ml, cAMP 1 mM, dexamethasone 1 μM
Protocol: The SIK2 gene was incubated with each of these hormones, and with the mixture consisting of the 3 types of hormones, for 2 hours. Thereafter, the mRNA level of SIK2 was measured. […] The measurement was carried out by the Northern blot analysis using cDNA probes.

[4] = 10, 100, 1,000 nM staurosporine

Molecule: CN[C@@H]1C[C@H]2O[C@@](C)([C@@H]1OC)n1c3ccccc3c3c4c(c5c6ccccc6n2c5c31)C(=O)NC4 [staurosporine]
residual phosphorylating activity of SIK2 (mouse SIK2; 1 nM staurosporine in 5% DMSO solution): approximately 20% | inhibition at 0.01 µM (mouse SIK2; 10 nM staurosporine): ~100% | inhibition at 0.1 µM (mouse SIK2; 100 nM staurosporine): ~100% | concentration dependence of inhibition of phosphorylating activity of SIK2 (mouse SIK2; 1, 10, 100 nM): concentration-dependently inhibited | reaction of anti-phosphorylation Ser577 antibody with SIK (SIK [1]; 10 nM staurosporine, 1 hour): significantly decreased | reaction of anti-phosphorylation Thr182-Ser186 antibody with SIK (SIK [1]; 10 nM staurosporine, 1 hour): significantly decreased | reaction of SIK with anti-SIK1 antibody (SIK [1]; [4]): not significantly decreased | reactivity of antibody binding to SIK1 wherein serine at position 577 is not phosphorylated (SIK [1]; [4]): increased depending on the concentration of staurosporine

effect on enzyme activity of SIK (Syntide 2 phosphorylation) (SIK [3]): inhibits the enzyme activity of SIK
Molecule: p300 [84-93 (S89A)]: peptide p300 residues 84-93 with serine at position 89 substituted with alanine; bound to GFPC carrier in the cell test (LLRSGASPNL)
effect on CRE-suppressing activity of SIK in cells [2]: inhibits the CRE-suppressing activity of SIK in cells

Molecule: TNFα
effect on transcription in Gal4-CREB(-bZIP) system (Gal4-CREB(-bZIP)): suppressed | effect on activation of CRE due to PKA (CRE): sufficiently suppressed the activation of CRE due to PKA | effect on transcription in Gal-CREB (full-length) system (Gal-CREB (full-length)): inhibited

Molecule: insulin
effect on transcription of the SIK2 gene (mRNA level) (SIK2 gene): promoted the transcription of the SIK2 gene

inhibition of auto-phosphorylating activity and GST-Syntide 2-phosphorylating activity of GST-mSIK2 (mouse SIK2; single use of DMSO (5% DMSO)): approximately 30%
Molecule: C[S+](C)[O-] [DMSO, dimethyl sulfoxide]
